Measurements published in ChEMBL document CHEMBL4219097, “Synthesis of 3-aza[4.4.3]propellanes with high σ1 receptor affinity” (Bioorg Med Chem, 2018).

Columns and labels:
[1] = target: Sigma non-opioid intracellular receptor 1 (Cavia porcellus, UniProt Q60492); experiment: Displacement of [3H]-(+)-pentazocine from sigma1 receptor in guinea pig brain cortex membranes measured after 120 mins by scintillation counting method; type: cell membranes
[2] = target: T1, Sigma intracellular receptor 2 (Rattus norvegicus, UniProt Q5U3Y7); experiment: Displacement of [3H]DTG from sigma 2 receptor in rat liver membranes measured after 120 mins by scintillation counting method; type: cell membranes, Membrane
T1 sequence (Q5U3Y7 whole entry): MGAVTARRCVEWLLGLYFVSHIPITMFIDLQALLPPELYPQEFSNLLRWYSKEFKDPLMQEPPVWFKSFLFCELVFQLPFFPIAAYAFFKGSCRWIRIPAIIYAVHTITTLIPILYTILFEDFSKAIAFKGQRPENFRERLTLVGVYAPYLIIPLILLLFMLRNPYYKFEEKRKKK

[3] = Selectivity ratio of Ki for displacement of [3H]DTG from sigma 2 receptor in rat liver membranes to Ki for displacement of [3H]-(+)-pentazocine from sigma1 receptor in guinea pig brain cortex membranes; type: cell membranes
[4] = target: T2, Sigma intracellular receptor 2 (Rattus norvegicus) (UniProt Q5U3Y7); experiment: Displacement of [3H]DTG from sigma 2 receptor in rat liver membranes at 1 uM measured after 120 mins by scintillation counting method; type: cell membranes; conditions: Membrane
T2 sequence (whole entry): T1 sequence (Q5U3Y7 whole entry)

[5] = target: Sigma non-opioid intracellular receptor 1 (Cavia porcellus) (UniProt Q60492); experiment: Displacement of [3H]-(+)-pentazocine from sigma1 receptor in guinea pig brain cortex membranes at 1 uM measured after 120 mins by scintillation counting method; type: cell membranes
Sigma non-opioid intracellular receptor 1 (Cavia porcellus), sequence (Q60492 whole entry): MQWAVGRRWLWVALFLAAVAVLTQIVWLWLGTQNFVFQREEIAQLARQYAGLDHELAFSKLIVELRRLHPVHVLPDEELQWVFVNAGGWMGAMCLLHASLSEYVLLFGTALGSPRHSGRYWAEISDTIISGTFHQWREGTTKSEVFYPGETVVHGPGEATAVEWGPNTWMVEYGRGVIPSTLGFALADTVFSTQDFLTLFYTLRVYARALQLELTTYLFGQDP

Sigma non-opioid intracellular receptor 1, sequence (Q60492 whole entry): as above

Row | SMILES | Ki [1] [nM] | Ki [2] [nM] | Ratio Ki [3] | inhibition [4] [%] | inhibition [5] [%]
1 | c1ccc(CN2CCC34CCCCC3(CCC4)C2)cc1 (racemic) | 17 | 190 | 11 | – | –
2 | OC1CC23CCCCC2(C1)CN(Cc1ccccc1)CC3 (racemic; anti) [listing 1 of 2 here] | 122 | 2040 | – | – | –
3 | COc1ccc(C)cc1NC(=O)OC1CC23CCCCC2(C1)CN(Cc1ccccc1)CC3 (racemic; anti) [listing 1 of 2 here] | 82 | – | – | – | –
4 | COc1ccc(C)cc1NC(=O)OC1CC23CCCCC2(C1)CN(Cc1ccccc1)CC3 (racemic; anti) [listing 2 of 2 here] | – | – | > 12 | 8 | –
5 | OC1CC23CCCCC2(C1)CN(Cc1ccccc1)CC3 (racemic; anti) [listing 2 of 2 here] | – | – | 17 | – | –
6 | OC1CC23CCCCC2(C1)CN(Cc1ccccc1)CC3 (racemic; syn) [listing 1 of 2 here] | 336 | 690 | – | – | –
7 | COc1ccc(C)cc1NC(=O)OC1CC23CCCCC2(C1)CN(Cc1ccccc1)CC3 (racemic; syn) | – | – | – | 0 | 12
8 | OC1CC23CCCCC2(C1)CN(Cc1ccccc1)CC3 (racemic; syn) [listing 2 of 2 here] | – | – | 2 | – | –
